Source: paper PMC12305494, “Discovery of PXR Antagonist MI891 and PXR Degrader MI1013 and Their Roles in Hepatic Gene Regulation” (Journal of Medicinal Chemistry, 2025)
Values joined by “and” are separate entries in the source; they are usually repeats but may differ in a detail not shown here. Identical values can stand only once.

Assays:
human CAR LBD = molecular target: T1, human CAR LBD (Homo sapiens, UniProt Q14994); assay: CAR LBD assembly assay (CAR AA); format: cell-based
T1 construct: constructs encoding helices 3–12 and helix 1 of human CAR LBD; expressed in transfected cells; host or cells: HepG2
T1 sequence (Q14994 103-150 isoform Q14994-2 limits assumed): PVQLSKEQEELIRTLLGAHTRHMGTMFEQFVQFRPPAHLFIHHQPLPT
T1 sequence (Q14994 151-348 isoform Q14994-2 limits assumed): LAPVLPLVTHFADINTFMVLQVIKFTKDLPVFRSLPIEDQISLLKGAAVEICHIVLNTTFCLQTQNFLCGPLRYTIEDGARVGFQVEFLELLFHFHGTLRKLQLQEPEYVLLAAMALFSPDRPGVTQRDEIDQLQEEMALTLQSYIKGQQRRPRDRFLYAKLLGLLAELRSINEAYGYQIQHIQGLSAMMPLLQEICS
Description: The CAR LBD assembly assay used constructs encoding helices 3–12 and helix 1 of human CAR LBD as described before. GL4.31[luc2P/GAL4UAS/Hygro] (pGAL4 UAS-luc) luciferase reporter vector and pRL-TK Renilla expression vector (Promega) were used in the assay in HepG2 cells transfected using Lipofectamine 3000.

PXR = molecular target: T2, PXR (Homo sapiens, UniProt O75469); assay: cell-based
T2 sequence (O75469 1-434): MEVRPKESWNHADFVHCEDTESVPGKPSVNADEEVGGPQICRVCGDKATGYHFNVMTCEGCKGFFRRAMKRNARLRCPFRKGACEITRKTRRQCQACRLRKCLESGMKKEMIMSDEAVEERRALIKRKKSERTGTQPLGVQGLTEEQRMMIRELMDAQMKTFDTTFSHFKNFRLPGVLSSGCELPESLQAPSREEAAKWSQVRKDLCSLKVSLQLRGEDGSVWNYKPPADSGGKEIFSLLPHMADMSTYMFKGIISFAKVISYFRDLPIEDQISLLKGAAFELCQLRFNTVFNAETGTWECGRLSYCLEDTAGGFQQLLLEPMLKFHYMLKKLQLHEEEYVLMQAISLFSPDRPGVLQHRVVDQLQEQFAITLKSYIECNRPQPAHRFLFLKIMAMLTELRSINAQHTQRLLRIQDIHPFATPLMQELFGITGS
Protocol: The PXR activity was assessed as the PXR-dependent transcriptional activation using the construct. […] The control vector pRL-TK (Promega) constitutively expresses Renilla luciferase. […] Transient transfection experiments followed published protocols used in our laboratory and described before. , Luciferase reporter assays were conducted to evaluate interactions with PXR or CAR and their variants in HepG2, or COS-1. Cells were seeded at a density of 40,000 cells/cm^2 in 48-well plates (ThermoFisher Scientific) and maintained at 37 °C in a humidified atmosphere with 5% CO2. […] Following seeding, HepG2 cells were transfected with 150 ng/well of a luciferase reporter construct and 100 ng/well of a nuclear receptor expression vector using Lipofectamine 3000 (ThermoFisher Scientific) and with pRL-TK (30 ng/well) serving as the normalization control. After 24 h, cells were treated with test compounds for 24 h before cell lysis and subsequent firefly and Renilla luciferase activity analysis using the Dual-Glo Luciferase Assay System (Promega). […] The activities of test compounds were normalized to the respective controls to determine % activation or inhibition.

[1] = molecular target: T3, farnesoid X receptor (FXR) (Homo sapiens, UniProt Q96RI1); assay: FXR luciferase reporter assay, agonistic and antagonistic setups; format: cell-based; conditions: prototype ligand 6-OCA
T3 construct: the full-length expression vector was paired with pFXRE-luc luciferase construct; expressed in transfected cells
Protocol: For the farnesoid X receptor (FXR) luciferase gene reporter assay, the full-length expression vector was paired with pFXRE-luc luciferase construct. The p1A1-luc construct was used in the aryl hydrocarbon receptor (AhR) assays with pRL-TK for normalization. Gal4-LXR-α/β, and Gal4-PPAR-γ constructs were used with the pGAL4 UAS-luc construct. For the VDR assay, expression vector pSG5-hVDR together with pVDRE-luc constructs was used. Firefly and Renilla luciferase activities were analyzed using a Dual reporter assay (Promega). For the nuclear receptor assays, prototype ligands were used at the following concentrations: Calcitriol for VDR (100 nM), GW3965 for LXRα and LXRβ (10 μM), 6-OCA for FXR (1 μM), fenofibrate for PPARα (10 μM), estradiol for ERα and β (10 μM), rosiglitazone for PPARγ (10 μM), 3-MC for AhR (5 μM), and TCPOBOP for mCAR (10 μM). Detailed descriptions and protocols are detailed in our recent publication. ,

[2] = system: primary human hepatocytes; assay: RT-qPCR gene expression in primary human hepatocytes; format: cell-based; conditions: PHH, MI891 5 μM
Protocol: Cryopreserved human hepatocytes from three donors were purchased from BioIVT (Westbury, New York, USA). The characteristics of the donors were as follows: donor 1, donor 2, donor 3 - person. PHHs were seeded in PHH medium supplemented with 10% fetal bovine serum at a density of 350,000 cells per well of rat tail collagen type I-coated 24-well plates (catalog number 354408, Corning, New York, USA). Cultivation medium was replaced with serum-free PHH medium 2 h later. […] Rifampicin, SPA70, and dimethyl sulfoxide (DMSO) were all purchased from Sigma-Aldrich (St. Louis, Missouri, USA, now part of Merck).
RT-qPCR was utilized to investigate gene expression in HepaRG and PHH. Total RNA was extracted from these cells using the phenol–chloroform method. The concentration of the isolated RNA was then measured using a Nanodrop 1000 spectro-photometer (Thermo Fisher Scientific).
Following RNA isolation, reverse transcription was performed to convert RNA into complementary DNA (cDNA). This step was carried out using the High-capacity cDNA reverse transcription kit (Cat. No. 4374966, ThermoFisher Scientific). The resulting cDNA served as the template for subsequent qPCR reactions.
The qPCR reactions were conducted on the QuantStudio 6 Flex Real-Time PCR System (ThermoFisher Scientific, Waltham, Mas-sachusetts). For these reactions, TaqMan Universal master mix II (Cat. No. 4440047, ThermoFisher Scientific) and TaqMan assays (FAM) utilized in this study are detailed in the Supporting Information. To quantify gene expression, the cycle threshold (Ct) values of the target genes were normalized to the Ct values of reference genes HPRT1 or GAPDH (HepaRG) or TBP (PHH). The normalized values were then expressed as fold changes (2−ΔΔCt) relative to the DMSO control at the specified time points, with the control set as 1.

eGFP-tagged PXR = molecular target: T4, eGFP-tagged PXR (Homo sapiens, UniProt O75469+Q96SW2); assay: Fluorescence (eGFP) intensity assay in COS-1 cells; format: cell-based; conditions: 24 h
T4 construct: host or cells: COS-1
Protocol: COS-1 cells were transfected with 150 ng of PXR-eGFP (NR1I2_pcDNA3.1(+)-N-eGFP, GenScript Biotech) and 150 ng of CRBN (GenScript - CRBN_OHu21180D_pcDNA3.1+/C-(K)-DYK) in a 48-well plate using Lipofectamine 3000, following the manufacturer’s protocol. After 24 h, the transfected cells were treated with varying concentrations of the MI1013 compound and incubated for another 24 h. The eGFP fluorescence was then checked and imaged using the Invitrogen EVOS imaging system. Fluorescence intensity was measured using the Spark Multimode Microplate Reader (V2.2) in Fluorescence Intensity Scan Top Reading mode. The excitation wavelength was set between 440 and 500 nm, and the emission wavelength was set at 545 nm (Monochromator), with a gain of 100 and an integration time of 40 μs. Graphs were generated using GraphPad Prism.

T4 sequence (Q96SW2 whole entry, one chain of several): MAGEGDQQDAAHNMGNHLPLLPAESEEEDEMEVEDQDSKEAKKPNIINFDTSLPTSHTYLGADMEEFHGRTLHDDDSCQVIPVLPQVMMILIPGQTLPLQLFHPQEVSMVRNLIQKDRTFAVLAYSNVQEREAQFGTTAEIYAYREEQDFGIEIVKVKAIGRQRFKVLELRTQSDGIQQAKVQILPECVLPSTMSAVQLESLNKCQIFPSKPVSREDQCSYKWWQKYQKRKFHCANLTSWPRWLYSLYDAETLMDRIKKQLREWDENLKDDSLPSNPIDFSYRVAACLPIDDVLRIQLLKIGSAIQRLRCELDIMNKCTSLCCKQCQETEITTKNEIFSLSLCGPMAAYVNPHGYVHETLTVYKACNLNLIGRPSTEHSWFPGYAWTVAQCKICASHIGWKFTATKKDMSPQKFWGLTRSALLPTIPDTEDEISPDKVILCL
T3 sequence (Q96RI1 whole entry): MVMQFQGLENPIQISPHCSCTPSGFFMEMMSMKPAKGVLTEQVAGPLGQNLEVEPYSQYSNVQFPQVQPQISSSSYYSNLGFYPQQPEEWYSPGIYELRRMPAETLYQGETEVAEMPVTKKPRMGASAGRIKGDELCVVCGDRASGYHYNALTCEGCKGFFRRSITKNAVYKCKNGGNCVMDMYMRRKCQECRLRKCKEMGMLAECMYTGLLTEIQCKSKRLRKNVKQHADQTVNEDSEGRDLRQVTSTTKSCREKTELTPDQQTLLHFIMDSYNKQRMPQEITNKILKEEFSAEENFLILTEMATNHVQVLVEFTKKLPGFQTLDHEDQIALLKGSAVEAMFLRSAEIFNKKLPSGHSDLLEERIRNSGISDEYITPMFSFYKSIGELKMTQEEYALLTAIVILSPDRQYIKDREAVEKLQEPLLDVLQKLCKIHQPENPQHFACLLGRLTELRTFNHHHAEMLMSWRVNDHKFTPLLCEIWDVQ

NC(=O)c1cc(Cn2cc(-c3c(-c4ccc(Cl)cc4)nc4c(F)cc(F)cn34)nn2)ccc1Cl [Compound 11, 2-Chloro-5-((4-(2-(4-chlorophenyl)-6,8-difluoroimidazo[1,2-a]pyridin-3-yl)-1H-1,2,3-triazol-1-yl)methyl)-benzamide]
activation of CAR LBD assembly (human CAR LBD; at 10 μM concentration): lack of significant (p value 0.07) activation
EC50 (human CAR LBD; na = no activity, tox = cytotoxicity in HepG2 cells): > 10 µM
IC50 (PXR; IC50, antagonistic activity for rifampicin (1 μM)-activated PXR, rifampicin 1 μM, HepG2): 0.378 µM
IC50 (PXR; IC50, antagonistic mode, MI891 + Rif-5 μM, rifampicin 5 μM, HepG2): 3.5 µM
IC50 (PXR; PXR antagonism: PXR inhibition (IC50, μM), antagonist mode with 10 μM rifampicin, mean ± SD, n = 3): 3.8 µM and 3.76 µM
agonistic or antagonistic activity on FXR [1]: no significant agonistic or antagonistic activities
CYP7A1, HMGCS2, PCK1 and MKI67 mRNA ([2]; in the presence and absence of rifampicin): significant downregulation
CYP2B6 mRNA ([2]; all donors): may slightly upregulate
CYP3A4 mRNA expression ([2]; three donors, rifampicin 10 μM, 48 h): suppressed the expression of CYP3A4 mRNA and attenuated its induction by rifampicin

N-(4-((1-(2,5-dimethoxyphenyl)-5-methyl-1H-1,2,3-triazol-4-yl)sulfonyl)phenyl)-3-(2-(2-(2-(4-(((2-(2,6-dioxopiperidin-3-yl)-1,3-dioxoisoindolin-4-yl)amino)methyl)-1H-1,2,3-triazol-1-yl)ethoxy)ethoxy)ethoxy)propenamide [Compound 36]
degradation of eGFP-tagged PXR (loss of fluorescence) (eGFP-tagged PXR): dose-dependent degradation of eGFP-tagged PXR
